Data set [1] relates to MCF7. The data set is described as follows: Antiproliferative activity against human MCF7 cells assessed as reduction in cell viability incubated for 2 days by MTT assay. It counts as functional, cell-based. The following applies: MCF7, 48 h. (Tetrazolium assays rely on reduction of a dye to a coloured formazan, in cell work by metabolically active cells.)
Data set [2] has as its system SK-BR-3. Briefly: Antiproliferative activity against human SKBR3 cells assessed as reduction in cell viability incubated for 2 days by MTT assay. It counts as functional, cell-based. The following applies: SK-BR-3, 48 h.
In data set [3] the test system is SK-BR-3. The data set is described as follows: Potency index, ratio of IC50 of TFP to IC50 of compound for antiproliferative activity against human SKBR3 cells assessed as reduction in cell viability incubated for 2 days by MTT assay. In kind it is functional.
Data set [4] relates to MDA-MB-231. Briefly: Antiproliferative activity against human MDA-MB-231 cells assessed as reduction in cell viability incubated for 2 days by MTT assay. It counts as functional, cell-based. The following applies: MDA-MB-231, 48 h.
For data set [5], the system named is SUM-159-PT. Briefly: Antiproliferative activity against human SUM159 cells assessed as reduction in cell viability incubated for 2 days by MTT assay. It counts as functional, cell-based. The following applies: 48 h.
Data set [6] deals with SUM-159-PT. The data set is described as follows: Potency index, ratio of IC50 of TFP to IC50 of compound for antiproliferative activity against human SUM159 cells assessed as reduction in cell viability incubated for 2 days by MTT assay. In kind it is functional.
Data set [7] relates to MDA-MB-231. Briefly: Potency index, ratio of IC50 of TFP to IC50 of compound for antiproliferative activity against human MDA-MB-231 cells assessed as reduction in cell viability incubated for 2 days by MTT assay. In kind it is functional.
A further data set concerns KG-1a. The data set is described as follows: Antiproliferative activity against human KG1a cells assessed as reduction in cell viability incubated for 2 days by MTT assay. In kind it is functional, cell-based. The following applies: 48 h.
Data set [8] in a line: Toxicity in zebra fish assessed as survival rate at 250 uM observed for 24 hrs. More on the design: species or system Danio rerio. Particulars: zebrafish.
For data set [9], the system named is MCF7. The data set is described as follows: Potency index, ratio of IC50 of TFP to IC50 of compound for antiproliferative activity against human MCF7 cells assessed as reduction in cell viability incubated for 2 days by MTT assay. In kind it is functional.

In general, IC50 refers to the concentration at which inhibition is half-maximal. For `CSc1ccc2c(c1)N(CCCN1CCN(C(=O)CCC(=O)OCC#CCOc3no[n+]([O-])c3S(=O)(=O)c3ccccc3)CC1)c1ccccc1S2`, the IC50 in the data set on MCF7 [1] was determined as 4.32 µM; with SK-BR-3 [2], 2.63 µM; in the data set on MDA-MB-231 [4], 20.2 µM; in the data set with SUM-159-PT [5], 3.97 µM. Also, the “Ratio IC50” value in the data set on SK-BR-3 [3] is on record as 6.

`COCCN(CCCN1c2ccccc2Sc2ccc(SC)cc21)CCOC`: the IC50 in the data set on MCF7 [1] is 6.09 µM; in the data set with SK-BR-3 [2], 31.9 µM; with MDA-MB-231 [4], 40.5 µM; in the data set on SUM-159-PT [5] it was 18.3 µM.

Consider `OCCN(CCO)CCCN1c2ccccc2Sc2ccccc21`, for which the half-maximal inhibitory concentration (IC50) in the data set with MCF7 [1], with SK-BR-3 [2], in the data set on MDA-MB-231 [4] and in the data set on SUM-159-PT [5] was greater than 50 µM throughout.

For `COCCN(CCCN1c2ccccc2Sc2ccc(C(F)(F)F)cc21)CCOC`, the IC50 with MCF7 [1] was greater than 50 µM; in the data set on SK-BR-3 [2] it was greater than 50 µM; in the data set on MDA-MB-231 [4], greater than 50 µM; in the data set on SUM-159-PT [5], 29.9 µM.

Consider `O=C1CC(c2ccccc2)Oc2cc(O)c(CN3CCN(CCCN4c5ccccc5Sc5ccccc54)CC3)c(O)c21` (stereo not drawn), for which the IC50 in the data set with MCF7 [1], with SK-BR-3 [2], in the data set on MDA-MB-231 [4] and in the data set on SUM-159-PT [5] was greater than 50 µM in each case.

For the molecule `O=C(CCC(=O)N1CCN(CCCN2c3ccccc3Sc3ccccc32)CC1)NCCOc1no[n+]([O-])c1S(=O)(=O)c1ccccc1`, the figures for the “Ratio IC50” value in the data set on SUM-159-PT [6], in the data set with SK-BR-3 [3] and in the data set on MDA-MB-231 [7] were 4, 4 - 9 and 4 - 15, respectively. Also, the half-maximal inhibitory concentration (IC50) with MCF7 [1] was determined as 5.58 µM; in the data set on SK-BR-3 [2] it was 4.01 µM; in the data set with MDA-MB-231 [4], 1.43 µM; in the data set with SUM-159-PT [5], 4.17 µM.

`CSc1ccc2c(c1)N(CCCN1CCN(Cc3c(O)cc4c(c3O)C(=O)CC(c3ccccc3)O4)CC1)c1ccccc1S2` (stereo not drawn): the concentration for half-maximal inhibition (IC50) in the data set with MCF7 [1], with SK-BR-3 [2], with MDA-MB-231 [4] and in the data set on SUM-159-PT [5] was greater than 50 µM each time.

Consider `CSc1ccc2c(c1)N(CCCN1CCN(C(=O)CCC(=O)NCCOc3no[n+]([O-])c3S(=O)(=O)c3ccccc3)CC1)c1ccccc1S2`, for which the IC50 was determined as 12.2 µM in the data set on MCF7 [1], 2.68 µM in the data set on SK-BR-3 [2], 3.41 µM with MDA-MB-231 [4] and 9.34 µM in the data set on SUM-159-PT [5]. The results for the “Ratio IC50” value in the data set with SK-BR-3 [3] and in the data set on MDA-MB-231 [7] were 4 - 9 and 4 - 15, respectively.

For the molecule `OCCN(CCO)CCCN1c2ccccc2Sc2ccc(C(F)(F)F)cc21`, the 50% inhibitory concentration (IC50) came out at 33.6 µM in the data set with MCF7 [1], 43.2 µM in the data set on SK-BR-3 [2], 6.09 µM with MDA-MB-231 [4] and 46 µM in the data set on SUM-159-PT [5].

Consider `CSc1ccc2c(c1)N(CCC1CCCCN1C)c1ccccc1S2` (stereo not drawn) [THIORIDAZINE], for which the concentration for half-maximal inhibition (IC50) in the data set with KG-1a stood at 6.01 µM; in the data set on SK-BR-3 [2], 18.2 µM; in the data set with MDA-MB-231 [4], 14.2 µM; in the data set with SUM-159-PT [5], 14.5 µM.

`O=C(CCC(=O)N1CCN(CCCN2c3ccccc3Sc3ccc(C(F)(F)F)cc32)CC1)NCCOc1no[n+]([O-])c1S(=O)(=O)c1ccccc1`: the “Ratio IC50” value in the data set with SUM-159-PT [6] is given as 9; with SK-BR-3 [3], 4 - 9; with MDA-MB-231 [7], 4 - 15. Besides, the 50% inhibitory concentration (IC50) in the data set on MCF7 [1] was 6.96 µM; with SK-BR-3 [2] it was 1.77 µM; with MDA-MB-231 [4] it was 6.04 µM; in the data set on SUM-159-PT [5] it was 1.98 µM.

Regarding `CSc1ccc2c(c1)N(CCCN(CCO)CCO)c1ccccc1S2`, the IC50 was 36.7 µM with MCF7 [1], 27.2 µM with SK-BR-3 [2], 10.3 µM with MDA-MB-231 [4] and 24.6 µM in the data set with SUM-159-PT [5].

On to `O=C1CC(c2ccc(O)cc2)Oc2cc(O)c(CN3CCN(CCCN4c5ccccc5Sc5ccccc54)CC3)c(O)c21` (stereo not drawn), for which the concentration for half-maximal inhibition (IC50) with MCF7 [1], in the data set on SK-BR-3 [2], with MDA-MB-231 [4] and in the data set on SUM-159-PT [5] was greater than 50 µM throughout.

Consider `CSc1ccc2c(c1)N(CCCN1CCN(C(=O)CCC(=O)OCCOCCOc3no[n+]([O-])c3S(=O)(=O)c3ccccc3)CC1)c1ccccc1S2`, for which the “Ratio IC50” value with SUM-159-PT [6] is recorded as 4 - 9; with SK-BR-3 [3], 4; in the data set with MDA-MB-231 [7], 7. The IC50 amounted to 11.9 µM in the data set on MCF7 [1], 3.91 µM in the data set on SK-BR-3 [2], 3.06 µM in the data set on MDA-MB-231 [4] and 4.31 µM in the data set with SUM-159-PT [5].

Regarding `CSc1ccc2c(c1)N(CCCN1CCN(Cc3c(O)cc4c(c3O)C(=O)CC(c3ccc(O)cc3)O4)CC1)c1ccccc1S2` (stereo not drawn), the half-maximal inhibitory concentration (IC50) in the data set on MCF7 [1] is greater than 50 µM; with SK-BR-3 [2], greater than 50 µM; with MDA-MB-231 [4] it was greater than 50 µM; in the data set on SUM-159-PT [5] it was 32.2 µM.

As for `O=C(CCC(=O)N1CCN(CCCN2c3ccccc3Sc3ccccc32)CC1)OCCOCCOc1no[n+]([O-])c1S(=O)(=O)c1ccccc1`, the results for the “Ratio IC50” value with SUM-159-PT [6] and in the data set on SK-BR-3 [3] were 4 - 9 and 4, respectively. In addition, the IC50 in the data set with MCF7 [1] amounted to 12.2 µM; in the data set with SK-BR-3 [2], 3.13 µM; in the data set on MDA-MB-231 [4] it was 14.8 µM; in the data set with SUM-159-PT [5], 1.95 µM.

For the molecule `O=C1CC(c2ccc(O)cc2)Oc2cc(O)c(CN3CCN(CCCN4c5ccccc5Sc5ccc(C(F)(F)F)cc54)CC3)c(O)c21` (stereo not drawn), the 50% inhibitory concentration (IC50) was greater than 50 µM in the data set with MCF7 [1], greater than 50 µM in the data set on SK-BR-3 [2], greater than 50 µM in the data set with MDA-MB-231 [4] and 25 µM in the data set with SUM-159-PT [5].

Turning to `CSc1ccc2c(c1)N(CCCN1CCN(C(=O)CCC(=O)OCCOc3no[n+]([O-])c3S(=O)(=O)c3ccccc3)CC1)c1ccccc1S2`, the IC50 in the data set on KG-1a came out at 1.2 µM; in the data set with MCF7 [1] it was 1.85 µM; in the data set with SK-BR-3 [2], 3.86 µM; in the data set with MDA-MB-231 [4] it was 3.82 µM; with SUM-159-PT [5] it was 1.2 µM. Moreover, the survival at 24 h, 250 µM in data set [8] was found to be 32.3%.

For `O=C(CCC(=O)N1CCN(CCCN2c3ccccc3Sc3ccc(C(F)(F)F)cc32)CC1)OCCOc1no[n+]([O-])c1S(=O)(=O)c1ccccc1`, the IC50 in the data set with KG-1a turned out to be 2.2 µM; with MCF7 [1] it was 1.36 µM; in the data set on SK-BR-3 [2], 1.51 µM; with MDA-MB-231 [4], 7.09 µM; in the data set on SUM-159-PT [5], 2.2 µM. Also, the survival at 24 h, 250 µM in [8] was determined as 25.8%.

As for `COCCN(CCCN1c2ccccc2Sc2ccccc21)CCOC`, the IC50 with MCF7 [1] is 29.8 µM; in the data set on SK-BR-3 [2], greater than 50 µM; in the data set on MDA-MB-231 [4], 45.1 µM; with SUM-159-PT [5] it was 35.3 µM.

Take `O=C(CCC(=O)N1CCN(CCCN2c3ccccc3Sc3ccc(C(F)(F)F)cc32)CC1)OCCOCCOc1no[n+]([O-])c1S(=O)(=O)c1ccccc1`: the “Ratio IC50” value was 4 - 9 in the data set with SUM-159-PT [6], 7 with MDA-MB-231 [7] and 3 in the data set with MCF7 [9]. Besides, the half-inhibitory concentration (IC50) in the data set with MCF7 [1] came to 3.31 µM; in the data set with SK-BR-3 [2], 10.1 µM; in the data set with MDA-MB-231 [4], 3.12 µM; in the data set with SUM-159-PT [5], 3.36 µM.

`O=C1CC(c2ccccc2)Oc2cc(O)c(CN3CCN(CCCN4c5ccccc5Sc5ccc(C(F)(F)F)cc54)CC3)c(O)c21` (stereo not drawn): the IC50 with MCF7 [1], in the data set on SK-BR-3 [2], in the data set with MDA-MB-231 [4] and in the data set on SUM-159-PT [5] was greater than 50 µM in each case.

For the molecule `O=C(CCC(=O)N1CCN(CCCN2c3ccccc3Sc3ccc(C(F)(F)F)cc32)CC1)OCC#CCOc1no[n+]([O-])c1S(=O)(=O)c1ccccc1`, the IC50 with MCF7 [1] was determined as 7.26 µM; in the data set with SK-BR-3 [2], 18 µM; with MDA-MB-231 [4], 5.89 µM; in the data set with SUM-159-PT [5], 5.44 µM.

With `O=C(CCC(=O)N1CCN(CCCN2c3ccccc3Sc3ccccc32)CC1)OCC#CCOc1no[n+]([O-])c1S(=O)(=O)c1ccccc1`, the IC50 in the data set with MCF7 [1] was 1.55 µM; in the data set on SK-BR-3 [2], 8.89 µM; in the data set with MDA-MB-231 [4] it was 6.4 µM; in the data set with SUM-159-PT [5], 2.85 µM. Also, the “Ratio IC50” value in the data set with MCF7 [9] turned out to be 7.

(Values after ChEMBL document CHEMBL4342417, “Design, synthesis and evaluation of novel phenothiazine derivatives as inhibitors of breast cancer stem cells” (Eur J Med Chem, 2019).)
